System: K562 cells transfected with the alpha4 integrin subunit
Conditions: ligand alone
Experimental: K562 cells express the betal integrin subunit, but not the alpha4 integrin subunit. Staining was quantified by FLOW cytometry, which was performed on a Coulter® XL-MCL™ Flow Cytometer (Beckman Coulter, Inc.; Fullerton, Calif.). Cells were harvested and adjusted to a concentration of 1×10^6 cells/ml in TBS plus 1 mM CaCl2 and MnCl2. Fc-ligand antibody conjugates, Fc fragments, or ligands were then incubated at various concentrations with cells for 1 hour at room temperature. Cells were centrifuged at 1000 RPM for 5 minutes, liquid was aspirated, and cells were resuspended and spun down again. Cells were then incubated with a detecting agent, e.g., 1:1000 streptavidin-PE or 1:500 anti-human Fc-FITC (Sigma-Aldrich Co.) for 1 h at room temperature. Cells were washed two times as described above and then resuspended in PBS at a concentration of 1×10^6 cells/ml. Cellular fluorescence was visualized using a fluorescent microscope.

`Cc1ccccc1NC(=O)Nc1ccc(CC(=O)N[C@@H](CCCCNC(=O)/C=C/c2cccnc2)C(=O)N[C@@H](CCCC(=O)O)C(=O)NC2(C(=O)NCCOCCOCCNC(=O)CCC(=O)N[C@@H](Cc3ccc(O)c(O)c3)C(=O)NCCOCCOCCNC(=O)CCC(=O)NCCOCCOCCNC(=O)CCC(=O)N[C@@H](CCCCNC(=O)CCCC[C@@H]3SC[C@@H]4NC(=O)N[C@@H]43)C(N)=O)CCCCC2)cc1` [Ligand 2A-DOPA-Biotin] showed an IC50 of 2 pM.

Reference: patent publication US20100021379A1, “Chemical Antibodies for Immunotherapy and Imaging” (The Regents of the University of California, priority 2006, published 2010)
